Results on 1 compound are retold here after patent publication US11479804B1 (priority 2010, dated 2022).

Entries after “also recorded” stand apart in the source; their conditions may differ.

Experiment [1] deals with T1, acetylcholinesterase (Homo sapiens, UniProt P22303). Type of experiment: biochemical.
In experiment [2] the target is T1, acetylcholinesterase. The experiment in a line: Acetylcholinesterase assay with malaoxon in complex samples (apple juice, whole milk, soil) using GEMBE. In kind it is biochemical. As to conditions: for LOD in filtered apple juice: filtered apple juice (10× dilution); for LOD in soil: soil added as a slurry to the sample reservoir; for LOD in whole milk: whole milk (10× dilution). As for the experimental part: Assay Conditions in Apple Juice. A running buffer was prepared consisting of 4-(2-hydroxyethyl)-1-piperazineethanesulfonic acid, i.e. HEPES, at a concentration of ˜100 mM and 2-[Bis(2-hydroxyethyl)amino]-2-(hydroxymethyl)-1,3-propanediol, i.e. BIS-TRIS, at a concentration of ˜100 mM. The running buffer was prepared at pH ˜7.1. EOTrol™ HR (Target Discovery, Palo Alto, Calif.) was added to the run buffer as a dynamic coating to reverse the direction of EOF at a concentration of 1% (by volume).
Prior to reaction, the surface of a polyoxymethylene sample reservoir (Delrin, DuPont, Wilmington, Del.) was passivated with bovine serum albumin (˜2 mg/mL). A sample containing malaoxon (˜1 mM) in filtered apple juice (10× dilution) was added to the sample reservoir. Acetylcholine (˜500 μM) and acetylcholinesterase (˜10.4 nM) were added to the sample reservoir and were allowed to incubate for ˜5 min.
Assay Conditions in Whole Milk. A running buffer was prepared consisting of 4-(2-hydroxyethyl)-1-piperazineethanesulfonic acid, i.e. HEPES, at a concentration of ˜100 mM and 2-[Bis(2-hydroxyethyl)amino]-2-(hydroxymethyl)-1,3-propanediol, i.e. BIS-TRIS, at a concentration of ˜100 mM. The running buffer was prepared at pH ˜7.1. EOTrol™ HR (Target Discovery, Palo Alto, Calif.) was added to the run buffer as a dynamic coating to reverse the direction of EOF at a concentration of 1% (by volume).
Prior to reaction, the surface of a polyoxymethylene sample reservoir (Delrin, DuPont, Wilmington, Del.) was passivated with bovine serum albumin (2 mg/mL). A sample containing malaoxon (˜1 mM) in whole milk (4% milk fat, Giant Food) at a dilution of 10× was added to the sample reservoir. Acetylcholine (˜500 μM) and acetylcholinesterase (˜10.4 nM) were added to the sample reservoir and were allowed to incubate for ˜5 minutes.
Assay Conditions in Soil. A running buffer was prepared consisting of 4-(2-hydroxyethyl)-1-piperazineethanesulfonic acid, i.e. HEPES, at a concentration of ˜100 mM and 2-[Bis(2-hydroxyethyl)amino]-2-(hydroxymethyl)-1,3-propanediol, i.e. BIS-TRIS, at a concentration of ˜100 mM. The running buffer was prepared at pH ˜7.1. EOTrol™ HR (Target Discovery, Palo Alto, Calif.) was added to the run buffer as a dynamic coating to reverse the direction of EOF at a concentration of 1% (by volume).
Prior to reaction, the surface of a polyoxymethylene sample reservoir (Delrin, DuPont, Wilmington, Del.) was passivated with bovine serum albumin (2 mg/mL). A sample containing malaoxon (˜1 mM) in soil was added as a slurry to the sample reservoir. Acetylcholine (˜500 μM) and acetylcholinesterase (˜10.4 nM) were added to the sample reservoir and were allowed to incubate for ˜5 min.
Separation of Acetylcholine and Choline Using Gradient Elution Moving Boundary Electrophoresis. The reaction mixtures were separately introduced into the inlet end of the separation channel of a GEMBE device, wherein a voltage of ˜−2000V was applied on the waste chamber. During the GEMBE separation, the pressure applied to the run buffer reservoir was varied from about 6,000 Pa to about −8,000 Pa at a rate of −300 Pa/s. The concentration of choline was detected and quantified.

Setting [3] is: acetylcholine ~500 μM, acetylcholinesterase ~10.4 nM.

T1 sequence (P22303 32-614): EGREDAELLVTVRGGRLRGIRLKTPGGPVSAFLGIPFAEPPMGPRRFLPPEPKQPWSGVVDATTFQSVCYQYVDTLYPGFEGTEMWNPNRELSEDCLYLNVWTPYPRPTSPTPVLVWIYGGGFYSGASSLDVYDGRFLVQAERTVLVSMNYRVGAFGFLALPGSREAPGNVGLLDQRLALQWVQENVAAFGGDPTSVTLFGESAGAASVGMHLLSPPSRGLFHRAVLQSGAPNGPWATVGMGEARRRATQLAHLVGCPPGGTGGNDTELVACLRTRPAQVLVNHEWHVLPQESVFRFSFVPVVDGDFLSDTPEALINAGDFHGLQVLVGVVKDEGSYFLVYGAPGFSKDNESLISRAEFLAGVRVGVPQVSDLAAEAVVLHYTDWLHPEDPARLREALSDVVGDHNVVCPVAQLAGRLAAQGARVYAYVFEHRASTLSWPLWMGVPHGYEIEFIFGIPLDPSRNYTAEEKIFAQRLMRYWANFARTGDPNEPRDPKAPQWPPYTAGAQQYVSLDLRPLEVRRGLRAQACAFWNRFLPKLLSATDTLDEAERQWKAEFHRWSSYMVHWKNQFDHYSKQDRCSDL

As to `CCOC(=O)CC(SP(=O)(OC)OC)C(=O)OCC` (stereo not drawn) [malaoxon], in experiment [1], the “concentration of choline formed (inhibition of acetylcholinesterase)” value is listed as “a decrease in the concentration of choline was observed; also recorded: the concentration of choline does not increase over time”, the “limit of detection (LOD)” value is on record as 87.7 ppb and the “limit of detection (LOD) from conversion rate of acetylcholine to choline” value is about 279 nM. In experiment [2], the “LOD in filtered apple juice” value was 85.6 ppb, the LOD in soil is 1.5 ppm and the “LOD in whole milk” value was 82.0 ppb. In addition, in experiment [2] (setting [3]), the “LOD in filtered apple juice” value is about 2.72e-07 M, the LOD in soil is about 4.93e-06 M and the “LOD in whole milk” value is about 2.61e-07 M.
